Measured values reported in US9878054B2, “Polypeptide and lipophilic moiety conjugate compositions, formulations, and uses related thereto” (Tufts Medical Center, Inc., priority 2012, dated 2018).
pIC50: −log10 of the molar value. Where a SMILES comes first, the peptide text is derived from it. The star is where a group is joined. Palmitoyl = CCCCCCCCCCCCCCCC(=O)*

How the values were obtained:
[1] = test system: guinea pig platelets (thromboxane mimetic U46119); assay: Guinea pig ex vivo platelet aggregation to thromboxane mimetic U46119 after iv infusion; type: in vivo; conditions: 3 or 6 mg/kg iv, 20 μM U46119
Protocol: (§4) PZ-128 or 5% dextrose USP vehicle was infused for 10 min into the jugular vein of male and female guinea pigs (0.55-0.65 kg). A-C, At the 15 min time point, whole blood was collected by cardiac puncture in 100 μg/ml PPACK/4% Na-citrate (final) anti-coagulant and platelet rich plasma (PRP) prepared and aggregation measurements were performed. […] B-C, PRP obtained at the 15 min time point after infusion with vehicle, 3 mg/kg PZ-128 or 6 mg/kg PZ128 was challenged with 2.5 μM SFLLRN, 20 μM ADP or 20 μM thromboxane mimetic, U46119. Individual data points (n=3) are overlayed on bar graphs depicting mean±SD. […] Data in B-D were analyzed by the non-parametric Kruskal-Wallis test with the Dunn's multiple pairwise comparison post-test.
(§5) PZ-128 micelles were delivered by internal jugular vein infusions over 10 min.
(§6) Guinea pigs weighing 600-650 g were used for platelet aggregation experiments. PZ-128 micelles (3 or 6 mg/kg) were administered by a 10 min intravenous infusion, and blood was collected by cardiac puncture into sodium citrate (0.4% vol/vol final) 5 minutes after cessation of the infusion. PRP was prepared and PPACK added to a final concentration of 100 μg/ml. PRP was calcified with 2.5 mM CaCl2 and aggregation was performed as described above.

PAR1 = biological target: T1, PAR1 (Homo sapiens, UniProt P25116); assay: Human platelet aggregation, PAR1 agonist SFLLRN; type: cell-based; conditions: gel filtered human platelets, SFLLRN 2.5 μM
T1 construct: Platelets were isolated from platelet rich plasma (PRP) using Sepharose 2B columns; endogenous in cells; host or cells: human platelets from healthy donors, gel-filtered
T1 sequence (P25116 22-425): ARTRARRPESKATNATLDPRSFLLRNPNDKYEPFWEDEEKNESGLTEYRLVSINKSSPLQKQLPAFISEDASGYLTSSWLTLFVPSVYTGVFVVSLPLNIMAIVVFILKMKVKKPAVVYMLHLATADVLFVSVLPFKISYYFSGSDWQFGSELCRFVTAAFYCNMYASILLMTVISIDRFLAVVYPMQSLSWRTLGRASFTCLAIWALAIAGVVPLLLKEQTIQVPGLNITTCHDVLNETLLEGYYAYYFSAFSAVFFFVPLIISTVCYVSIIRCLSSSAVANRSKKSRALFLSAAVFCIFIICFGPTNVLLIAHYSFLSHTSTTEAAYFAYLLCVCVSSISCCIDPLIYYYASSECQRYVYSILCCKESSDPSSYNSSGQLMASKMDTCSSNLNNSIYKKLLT
Protocol: (§1) A, Depiction of the mechanism of action of the cell-penetrating PZ-128 pepducin compound targeting the third intracellular loop (red) of PAR1. B, The NMR structure of PZ-128 was determined by simulated annealing methods using 210 distance restraints and included restraints to the proximal 3 hydrocarbons of the lipid. […] D, PZ-128 inhibits PAR1-dependent platelet aggregation. Gel filtered human platelets were treated with various concentrations of PZ-128 and then challenged with the PAR1 agonist SFLLRN (2.5 μM), 20 μM ADP, 200 μM AYPGKF or 1 mg/ml Ristocetin. E, Human platelets were treated with 3 μM PZ-128, 3 μM RWJ-56110, or 5% dextrose vehicle before the addition of various concentrations of thrombin (n=3-5).
(§2) PZ-128 also markedly right-shifted thrombin-induced aggregation by 5-fold. By comparison, the small molecule RWJ-56110 which antagonizes PAR1 at the extracellular ligand-binding site gave a 2-fold right shift in the thrombin activation curve of human platelets.
(§3) Whole blood from healthy donors was collected into a 30 ml syringe containing sodium citrate (0.4% vol/vol final). Platelets were isolated from platelet rich plasma (PRP) using Sepharose 2B columns in modified PIPES buffer.

PAR4 = assay: Baboon ex vivo platelet aggregation, AYPGKF (PAR4); type: in vivo; conditions: any dose, any time point
Protocol: A-C, Male baboons (10-12 kg) were administered 1, 3 or 6 mg/kg PZ-128, or 5% dextrose USP vehicle by iv infusion and blood collected into 100 μg/ml PPACK anticoagulant at 0, 1, 2, 6, or 24 h time points. Light transmission platelet aggregometry was performed with platelet rich plasma with the indicated agonists (SFLLRN for PAR1, AYPGKF for PAR4 and ADP for P2Y12 and P2Y1). Data are reported as mean±SD (n=3-7) relative to time 0 controls (0%) and were analyzed by repeated measures one-way ANOVA with Bonferroni post-test correction; *P<0.05, **P<0.01 relative to time 0. Global P values were >0.05 for 1 mg/kg, 0.004 for 3 mg/kg, <0.0001 for 6 mg/kg. D, Pharmacokinetics of 3 and 6 mg/kg 45-min iv infusions of PZ-128 in male baboons. Plasma PZ-128 levels were measured by LC/MS/MS at 9 sequential time points: baseline, 15 min, 30 min, 1 h, 2 h, 4 h, 8 h, 24 h and 48 h after the start of infusion. Open symbols indicated plasma concentrations that were under the measurement threshold (5 ng/ml).
The anti-platelet effects of PZ-128 micelles were next examined in baboons at various time points after receiving different doses of intravenous infusions. […]
Non-terminal thrombosis and platelet aggregation studies were performed on 12 healthy male baboons (Papio anubis) weighing 9-12 kg at the Oregon National Primate Research Center (ONPRC). […] Platelet counts and hematocrit were measured immediately. […]

[2] = test system: guinea pig platelets (ADP); assay: Guinea pig ex vivo platelet aggregation to ADP after iv infusion; type: in vivo; conditions: 3 or 6 mg/kg iv, 20 μM ADP
Protocol: as §4, §5, §6

[3] = test system: human platelets (thrombin); assay: Thrombin-induced aggregation of human platelets; type: cell-based; conditions: 3 μM compound
Protocol: as §1, §2, §3

[4] = test system: human whole blood (red blood cell lysis); assay: Hemolysis of human whole blood; type: cell-based; conditions: up to 3.3 mg/mL in 5% dextrose, blood mixed 2:1; 40 min at 37° C.
Protocol: Fresh human whole blood (anticoagulated with 10 U heparin/mL) was mixed 2:1 with the various indicated dilutions of micelles of PZ-128 in 5% dextrose, incubated for 40 min at 37° C., and red blood cell lysis quantified by hemoglobin (Hb) release into the supernatant.
The PZ-128 micelle particles were solubilized in 5% dextrose/water at 10 mg/mL concentration and serially diluted with additional 5% dextrose/water to make stock solutions of 0.75, 1.5, 2.25, 3.0, 3.3 and 4.0 mg/mL PZ-128 in 5% dextrose water. Fresh human whole blood (anticoagulated with 10 U heparin/mL) was mixed 2:1 with the various dilutions of PZ-128 in 5% dextrose, incubated for 40 min at 37° C., and red blood cell lysis quantified by hemoglobin (Hb) release into the supernatant. […] The final pH of the PZ-128 micelles in 5% dextrose/water ranged from 6.75 to 7.13 at 1.25-10 mg/mL at room temperature.

[5] = test system: human platelets (Ristocetin); assay: Human platelet aggregation, ristocetin; type: cell-based; conditions: 1 mg/ml Ristocetin
Protocol: as §1, §2, §3

In the case of `CCCCCCCCCCCCCCCC(=O)N[C@@H](CCCCN)C(=O)N[C@@H](CCCCN)C(=O)N[C@@H](CO)C(=O)N[C@@H](CCCNC(=N)N)C(=O)N[C@@H](C)C(=O)N[C@@H](CC(C)C)C(=O)N[C@@H](Cc1ccccc1)C(N)=O` [PZ-128, palmitate-KKSRALF-NH2] (Palmitoyl-KKSRALF-NH2), the “Effect on ex vivo aggregation to thromboxane mimetic U46119” value [1] was “no effect”, the “Extent of inhibition of human platelet aggregation in response to SFLLRN” value (PAR1) was “completely inhibited” and the pIC50 (PAR1; read-out: IC50, inhibition of human platelet aggregation in response to PAR1 agonist SFLLRN) was 6.30. For the same compound, the “Inhibition of AYPGKF (PAR4) response ex vivo” value (PAR4) was “no inhibition”, the “Effect on ex vivo aggregation to ADP” value [2] was “no effect” and the “Right shift of thrombin-induced aggregation curve” value [3] was 5 fold. For the same compound, the “Hemolysis of human whole blood (Hb release)” value [4] was “no significant hemolysis” and the “Inhibitory activity against ristocetin aggregation” value [5] was “no inhibitory activity”.
